Assay [1] has as its system LF01-SSB-induced lethality and visible hematuria. Nature of the assay: Suppression of LF01-SSB-induced lethality and visible hematuria by inhibitors. Type of assay: in vivo. The settings on record: rats; for Rescue effect: Death, +inhibitor/−inhibitor / Rescue effect: Red urine, +inhibitor/−inhibitor: inhibitor 1 hr prior to LF01-SSB 9 mg/kg IV, animals with inhibitor/without inhibitor; for Rescue effect: Death, +inhibitor/−inhibitor: deaths until 96 hr; for Rescue effect: Red urine, +inhibitor/−inhibitor: urine collected over 24 hr. From the text: Since LF01-siRNA nanoparticles provoked lethality and multifactorial toxicities involving different systems in rats, this offers an in vivo model for pharmacologically probing the mechanism that triggers LF01-siRNA toxicities. We first evaluated the suppression of LF01-SSB-induced lethality and visible hematuria by anti-inflammation drugs and pathway-specific inhibitors of the innate immune system as shown in Table 1. […] Rats were pre-dosed with either a vehicle or one of these reagents using the dosing regimen listed in Table 1, followed by an IV dose of LF01-SSB at 9 mpk 1 hr later, and animals were monitored for lethality for 96 hr. In addition, urine was collected over the course of 24 hr for visual observation of hematuria.
Rats were dosed with PBS or one of these inhibitors 1 hr prior to IV administration of PBS or […] at 9 mg/kg. Urine samples were collected over a course of 24 hr for visual examination of hematuria (red urine). Animals were monitored for lethality until 96 hr post LF01-SSB dose. Unscheduled deaths and cases of visible hematuria in animals receiving LF01-SSB with or without inhibitor pretreatment were scored and presented.
(§1) Rat studies. All animal studies were conducted at AAALAC-accredited Merck Research laboratories' animal facility located at West Point, Pa., and all study protocols were approved by Merck West Point Institutional Animal Care and Use Committee (IACUC). Female Sprague-Dawley (SD) rats obtained from Charles River were used in these studies at an age of 4-6 weeks and with a body weight of 120-160 grams. Anti-inflammation agents were administrated using the dosing regimens listed in Table 1, 1 hr prior to tail vein injection of liposomal siRNA nanoparticles in PBS in a volume of 0.8 ml under normal pressure. At 3 hr post injection of liposomal siRNA, ˜0.2 ml blood was collected by retro-orbital bleed under anesthesia and processed as plasma for the assessment of cytokines. At 24 hr, blood was collected for evaluation of complete blood cell counts (CBC), coagulation parameters and serum chemistry by venipuncture under anesthesia followed by exsanguination, and tissues from liver, spleen and kidney were collected for determination of SSB and ApoB mRNA levels and TUNEL analysis. For visual examination of urine color, rats were housed in metabolic cages to collect urine over a course of 24 hours after injection of liposomal siRNA nanoparticles. Animals were examined 3 times a day for detection of lethality over a course of 96 hours.

In assay [2] the test system is LF01-SSB-induced toxicities. Nature of the assay: LF01-SSB-induced toxicities in rats with or without inhibitor pretreatment. In kind it is in vivo. The settings on record: for suppression of cytokine release, elevation of serum transaminases, thrombocytopenia or coagulopathy induced by LF01-SSB: pretreatment before LF01-SSB 3 mg/kg. As for the experimental part: as §1, with “At 24 hr, blood was collected for evaluation of complete blood cell counts (CBC), coagulation parameters and serum chemistry by venipuncture under anesthesia followed by exsanguination, and tissues from liver, spleen and kidney were collected for determination of SSB and ApoB mRNA levels and TUNEL analysis.” left out
Analyses of rat blood samples. Cytokines in plasma were quantified using a microsphere bead-based, multiplexed assay, Milliplex™ RCYTO-80K-PMX23 (Millipore) which allows simultaneous quantification of 23 rat cytokines including IFNγ, IL-6, MCP-1 and TNFα. All CBC, coagulation and serum chemistry parameters were analyzed by Merck Laboratory of Animal Resources and the Safety Assessment Department at West Point, Pa. CBC was determined on whole blood placed in an EDTA-treated tube using an Advia 120 Hematology Analyzer (Siemens). Coagulation parameters in citrated plasma were assessed with a Behring Coagulation System (Siemens) and serum chemistry evaluation was conducted with an Advia 1800 Clinical Chemistry Analyzer (Siemens).
TUNEL (Terminal deoxynucleotidyl transferase-mediated dUTP-biotin Nick End Labeling). TUNEL staining in tissue sections was performed using a ‘TACS™ TdT-Blue Label in Situ Apoptosis Detection Kit’ (Trevigen). Briefly, 5 μm paraffin embedded sections of liver tissue were deparaffinized, fixed, labeled, and counterstained according to the manufacturer's recommendations. In Situ labeling procedure includes extension of 3′ ends with Biotin-dNTP (TdT Labeling Rxn), followed by additions of Strep-HRP and “TACS-Blue” Label or DAB for color development. TUNEL signal was quantified using the Arial system (Applied Imaging). Quantification of mRNA. qRT-PCR assays were used to quantify SSB and ApoB mRNA levels relative to the housekeeping gene Ppib in lysates prepared from tissues using kits from Applied Biosystems. The catalog numbers are Rn0057621_g1 for SSB, Rn01499054_m1 for ApoB and Rn03302274_m1 for Ppib.

A further assay concerns the target T1, IKK2 (Homo sapiens, UniProt O14920).
T1 sequence (O14920 1-756): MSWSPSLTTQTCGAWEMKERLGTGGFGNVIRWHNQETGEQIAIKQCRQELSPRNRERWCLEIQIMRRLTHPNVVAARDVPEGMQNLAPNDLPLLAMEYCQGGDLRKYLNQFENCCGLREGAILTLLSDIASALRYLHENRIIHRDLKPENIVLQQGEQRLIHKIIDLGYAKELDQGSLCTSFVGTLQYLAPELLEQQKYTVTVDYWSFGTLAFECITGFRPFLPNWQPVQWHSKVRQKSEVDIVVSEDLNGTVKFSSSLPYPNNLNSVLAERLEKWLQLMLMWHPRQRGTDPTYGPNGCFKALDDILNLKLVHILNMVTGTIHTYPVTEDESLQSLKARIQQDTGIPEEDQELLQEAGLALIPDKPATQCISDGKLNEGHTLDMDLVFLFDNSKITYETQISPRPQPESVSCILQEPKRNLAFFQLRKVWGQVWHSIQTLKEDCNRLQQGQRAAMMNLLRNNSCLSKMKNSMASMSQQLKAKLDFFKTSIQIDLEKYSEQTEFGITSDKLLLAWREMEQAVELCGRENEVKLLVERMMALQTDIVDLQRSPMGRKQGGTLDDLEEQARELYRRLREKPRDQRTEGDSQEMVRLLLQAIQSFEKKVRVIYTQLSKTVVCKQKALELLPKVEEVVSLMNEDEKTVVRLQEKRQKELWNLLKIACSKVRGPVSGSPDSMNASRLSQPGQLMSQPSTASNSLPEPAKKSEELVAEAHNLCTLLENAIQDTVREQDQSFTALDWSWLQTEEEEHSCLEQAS
Conditions: Table 1, from former studies; cited from earlier work.

The target in another assay is T2, IKK1 (Homo sapiens, UniProt O15111).
T2 sequence (O15111 1-745): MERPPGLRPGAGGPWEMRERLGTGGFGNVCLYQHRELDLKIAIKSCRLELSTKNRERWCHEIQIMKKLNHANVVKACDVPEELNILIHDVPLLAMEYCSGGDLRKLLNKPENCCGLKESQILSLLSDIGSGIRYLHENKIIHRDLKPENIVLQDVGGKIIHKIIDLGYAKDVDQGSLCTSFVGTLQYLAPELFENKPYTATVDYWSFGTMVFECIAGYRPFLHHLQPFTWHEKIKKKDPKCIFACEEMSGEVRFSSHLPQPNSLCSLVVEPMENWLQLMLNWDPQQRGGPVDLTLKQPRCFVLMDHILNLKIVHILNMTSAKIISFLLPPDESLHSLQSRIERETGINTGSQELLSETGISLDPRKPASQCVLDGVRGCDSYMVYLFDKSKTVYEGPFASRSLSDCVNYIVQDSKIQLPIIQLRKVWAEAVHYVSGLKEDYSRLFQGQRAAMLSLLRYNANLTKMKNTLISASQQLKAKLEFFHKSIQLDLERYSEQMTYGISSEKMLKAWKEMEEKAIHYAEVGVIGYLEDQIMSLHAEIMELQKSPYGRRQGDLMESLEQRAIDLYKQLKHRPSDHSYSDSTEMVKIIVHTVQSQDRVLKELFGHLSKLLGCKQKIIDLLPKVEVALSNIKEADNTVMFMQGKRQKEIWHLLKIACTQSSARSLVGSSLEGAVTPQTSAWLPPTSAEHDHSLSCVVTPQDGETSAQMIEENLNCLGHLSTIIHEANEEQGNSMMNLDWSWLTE
Conditions: Table 1, from former studies; cited from earlier work.

Data on five molecules can be found in US20120157500A1, “JAK INHIBITION BLOCKS RNA INTERFERENCE ASSOCIATED TOXICITIES” (priority 2009, published 2012).

One may read the IC50 as the concentration at which inhibition is half-maximal.

For `N=C(N)NN` [Aminoguanidine], in assay [1], the “Rescue effect: Death, +inhibitor/−inhibitor” value is 4/3 and the “Rescue effect: Red urine, +inhibitor/−inhibitor” value was 2/3. In addition, the “suppression of cytokine release, elevation of serum transaminases, thrombocytopenia or coagulopathy induced by LF01-SSB” value in assay [2] (rats) was “no appreciable suppression”.

On to `C[C@@H]1CCN(C(=O)CC#N)C[C@@H]1N(C)c1ncnc2[nH]ccc12` [CP-690550], for which the “effect on LF01-SSB-induced lethality and visible hematuria” value in assay [1] (pre-dosed 1 hr before LF01-SSB 9 mpk IV, monitored 96 hr) is on record as “prevented”. For the same molecule, in assay [1], the “Rescue effect: Death, +inhibitor/−inhibitor” value is recorded as 0/4 and the “Rescue effect: Red urine, +inhibitor/−inhibitor” value is 0/4. Further, in assay [2] (rat, in vivo), the “effect on LF01-SSB toxic responses (cytokine induction, ALT and AST elevation, thrombocytopenia, elongation of aPTT, hepatic and splenic cell death)” value was “suppression of toxic responses”.

In the case of `Cc1ccc(-c2ncc(Cl)cc2-c2ccc(S(C)(=O)=O)cc2)cn1` [Etoricoxib], in assay [1], the “Rescue effect: Death, +inhibitor/−inhibitor” value is 4/3 and the “Rescue effect: Red urine, +inhibitor/−inhibitor” value is recorded as 4/4. In addition, the “suppression of cytokine release, elevation of serum transaminases, thrombocytopenia or coagulopathy induced by LF01-SSB” value in assay [2] (rats) is “no appreciable suppression”.

Regarding `N.S=C(S)N1CCCC1` [PDTC], the IC50 was 20 nM on IKK2 and 400 nM at IKK1. In addition, the “Rescue effect: Death, +inhibitor/−inhibitor” value in assay [1] is on record as 4/5. Further, in assay [1], the “Rescue effect: Red urine, +inhibitor/−inhibitor” value is reported as 3/5. Further, the “effect on LF01-SSB-induced coagulopathy (elongation of aPTT)” value in assay [2] (rats, pre-dosed 1 hr prior to LF01-SSB 3 mg/kg IV, 24 hr) is on record as “no mitigation effect”.

For `C[S+]([O-])c1ccc(-c2nc(-c3ccncc3)c(-c3ccc(F)cc3)[nH]2)cc1` (stereo not shown) [SB-203580], in assay [1], the “Rescue effect: Death, +inhibitor/−inhibitor” value was 2/5 and the “Rescue effect: Red urine, +inhibitor/−inhibitor” value is on record as 2/5. Further, in assay [2] (rat, in vivo), the “effect on LF01-SSB-induced coagulopathy (elongation of aPTT)” value was “no mitigation effect”. Also, the “effect on LF01-siRNA induction of IL-6” value in assay [2] (rats, plasma 3 hr post LF01-SSB dose) is recorded as “abrogated”.
